Values joined by “and” are separate entries in the source; they are usually repeats but may differ in a detail not shown here. Equal entries are not always repeated. Toxic doses and inconclusive results are not listed.
System: B6C3F1 mice, ip Sarcoma M5076, median survival T/C
Experiment: NCI In Vivo Anticancer Drug Screen. Data for tumor model Sarcoma M5076 (intraperitoneal) in B6C3F1 mice
Conditions: endpoint: median survival time, schedule: Q04DX004 (ip), higher = longer survival
Method in brief: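 Transplantable tumour in mice; compound-treated vs vehicle-treated groups. Read-out: survival. Value = treated/control ratio.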

[1] = dose: 25.0 mg/kg/injection, vehicle: saline with Tween-80
[2] = dose: 50.0 mg/kg/injection, vehicle: saline with Tween-80
[3] = dose: 75.0 mg/kg/injection, vehicle: saline with Tween-80
[4] = dose: 100.0 mg/kg/injection, vehicle: saline with Tween-80
[5] = dose: 200.0 mg/kg/injection, vehicle: saline with Tween-80
[6] = dose: 18.75 mg/kg/injection, vehicle: Klucel (hydroxypropylcellulose) (HPC)
[7] = dose: 37.5 mg/kg/injection, vehicle: Klucel (hydroxypropylcellulose) (HPC)
[8] = dose: 75.0 mg/kg/injection, vehicle: Klucel (hydroxypropylcellulose) (HPC)
[9] = dose: 150.0 mg/kg/injection, vehicle: Klucel (hydroxypropylcellulose) (HPC)
[10] = dose: 50.0 mg/kg/injection, vehicle: suspension in saline
[11] = dose: 100.0 mg/kg/injection, vehicle: suspension in saline
[12] = dose: 50.0 mg/kg/injection, vehicle: Klucel (hydroxypropylcellulose) (HPC)
[13] = dose: 100.0 mg/kg/injection, vehicle: Klucel (hydroxypropylcellulose) (HPC)
[14] = dose: 200.0 mg/kg/injection, vehicle: Klucel (hydroxypropylcellulose) (HPC)
[15] = dose: 50.0 mg/kg/injection, vehicle: saline
[16] = dose: 100.0 mg/kg/injection, vehicle: saline
[17] = dose: 200.0 mg/kg/injection, vehicle: saline
[18] = dose: 25.0 mg/kg/injection, vehicle: Klucel (hydroxypropylcellulose) (HPC)

CCc1n[nH]c(CC)c1CCCCCCOc1ccc(OC)cc1Cl
T/C [1]: 106 % of control
T/C (dose: 37.5 mg/kg/injection, vehicle: saline with Tween-80): 100 % of control
T/C [2]: 107 % of control
T/C [3]: 91 % of control
T/C [4]: 97 % of control
T/C [5]: 91 % of control

Cc1cc2cc3cc(C)c(N)cc3nc2cc1N
T/C [1]: 110 % of control
T/C [2]: 117 % of control
T/C [4]: 113 % of control

CC1(C)CC(OS(C)(=O)=O)CC(C)(C)N1O
T/C [6]: 99 % of control
T/C [7]: 100 % of control
T/C [8]: 102 % of control
T/C [9]: 102 % of control

O=C(Nc1nc(-c2ccccc2)cs1)OCC(Cl)(Cl)Cl
T/C [1]: 103 % of control
T/C [2]: 107 % of control
T/C [4]: 94 % of control
T/C [5]: 91 % of control
T/C (dose: 400.0 mg/kg/injection, vehicle: saline with Tween-80): 91 % of control

Oc1ccc(/C=N/Nc2nnc(N/N=C/c3ccc(O)cc3O)c3ccccc23)c(O)c1
T/C (dose: 6.25 mg/kg/injection, vehicle: suspension in saline): 108 % of control
T/C (dose: 12.5 mg/kg/injection, vehicle: suspension in saline): 109 % of control
T/C (dose: 25.0 mg/kg/injection, vehicle: suspension in saline): 109 % of control
T/C [10]: 109 % of control
T/C [11]: 119 % of control

CCCC1(c2ccccc2)C(=O)NCNC1=O
T/C [12]: 99 % of control
T/C [13]: 95 % of control
T/C [14]: 88 % of control
T/C (dose: 400.0 mg/kg/injection, vehicle: Klucel (hydroxypropylcellulose) (HPC)): 88 % of control
T/C (dose: 800.0 mg/kg/injection, vehicle: Klucel (hydroxypropylcellulose) (HPC)): 88 % of control

Nc1nc(N)c2c(ccc3c2ccn3Cc2cccc([N+](=O)[O-])c2)n1
T/C (dose: 2.38 mg/kg/injection, vehicle: saline with Tween-80): 98 % of control and 109 % of control
T/C (dose: 4.69 mg/kg/injection, vehicle: saline with Tween-80): 117 % of control
T/C (dose: 4.75 mg/kg/injection, vehicle: saline with Tween-80): 115 % of control
T/C (dose: 9.38 mg/kg/injection, vehicle: saline with Tween-80): 121 % of control
T/C (dose: 9.5 mg/kg/injection, vehicle: saline with Tween-80): 118 % of control
T/C (dose: 38.0 mg/kg/injection, vehicle: saline with Tween-80): 153 % of control and 155 % of control

CN1CCC2CC1c1ccn(C)c1C2=O (configuration not stated)
T/C (dose: 3.75 mg/kg/injection, vehicle: saline): 106 % of control
T/C (dose: 7.5 mg/kg/injection, vehicle: saline): 102 % of control
T/C (dose: 15.0 mg/kg/injection, vehicle: saline): 107 % of control

O=c1[nH]cnc2c1nnn2C1OC(CO)C(O)C1O (configuration not stated)
T/C [15]: 105 % of control
T/C [10]: 97 % of control
T/C [16]: 93 % of control
T/C [11]: 94 % of control
T/C [17]: 112 % of control
T/C (dose: 200.0 mg/kg/injection, vehicle: suspension in saline): 98 % of control
T/C (dose: 400.0 mg/kg/injection, vehicle: saline): 101 % of control
T/C (dose: 400.0 mg/kg/injection, vehicle: suspension in saline): 96 % of control
T/C (dose: 800.0 mg/kg/injection, vehicle: saline): 103 % of control
T/C (dose: 800.0 mg/kg/injection, vehicle: suspension in saline): 96 % of control

CCNc1nc(NC(C)C)nc(-c2ccncc2)n1
T/C [18]: 93 % of control
T/C [12]: 95 % of control
T/C [13]: 95 % of control
T/C [14]: 95 % of control

CSC1=NCc2c(sc3c2CCCC3)N1
T/C [7]: 98 % of control
T/C [8]: 103 % of control
T/C [9]: 99 % of control
T/C (dose: 300.0 mg/kg/injection, vehicle: Klucel (hydroxypropylcellulose) (HPC)): 102 % of control

CSc1c(N(C)C)c(=O)c1=S
T/C (dose: 12.5 mg/kg/injection, vehicle: saline with Tween-80): 102 % of control
T/C [1]: 103 % of control
T/C [2]: 98 % of control
T/C [4]: 93 % of control

Nc1ccc2c(c1)CN1C(=O)c3ccccc3C1=N2
T/C [1]: 104 % of control
T/C [2]: 110 % of control
T/C [4]: 116 % of control

O=S(=O)(O)c1cc(N=C=S)ccc1/C=C/c1ccc(N=C=S)cc1S(=O)(=O)O
T/C (dose: 25.0 mg/kg/injection, vehicle: saline): 100 % of control
T/C [15]: 103 % of control
T/C [16]: 110 % of control
T/C [17]: 112 % of control

COc1ccc(CCN2C(=O)C(=O)N(c3cccc4c(N5C(=O)C(=O)N(CCc6ccc(OC)c(OC)c6)C5=O)cccc34)C2=O)cc1OC
T/C [6]: 94 % of control
T/C [7]: 99 % of control
T/C [8]: 99 % of control
T/C [9]: 105 % of control

CCC(CC)COC(=O)c1ccccc1C(=O)OCC(CC)CC
T/C [3]: 102 % of control
T/C (dose: 150.0 mg/kg/injection, vehicle: saline with Tween-80): 102 % of control
T/C (dose: 300.0 mg/kg/injection, vehicle: saline with Tween-80): 104 % of control
T/C (dose: 600.0 mg/kg/injection, vehicle: saline with Tween-80): 106 % of control
T/C (dose: 1200.0 mg/kg/injection, vehicle: saline with Tween-80): 114 % of control

Nc1ncnc2c1c1c(=O)[nH]c(=O)[nH]c1n2C1OC(CO)C(O)C1O (configuration not stated)
T/C (dose: 50.0 mg/kg/injection, vehicle: distilled water + Tween-80): 106 % of control and 115 % of control
T/C (dose: 100.0 mg/kg/injection, vehicle: distilled water + Tween-80): 117 % of control
T/C (dose: 200.0 mg/kg/injection, vehicle: distilled water + Tween-80): 104 % of control and 108 % of control
T/C (dose: 400.0 mg/kg/injection, vehicle: distilled water + Tween-80): 116 % of control

OC1OC2COC(c3ccccc3)OC2C(O)C1O (configuration not stated)
T/C (dose: 18.75 mg/kg/injection, vehicle: water): 109 % of control
T/C (dose: 37.5 mg/kg/injection, vehicle: water): 89 % of control
T/C (dose: 75.0 mg/kg/injection, vehicle: water): 96 % of control
T/C (dose: 150.0 mg/kg/injection, vehicle: water): 101 % of control
T/C (dose: 300.0 mg/kg/injection, vehicle: water): 98 % of control
T/C (dose: 600.0 mg/kg/injection, vehicle: water): 94 % of control

C=C(Cl)C(=NC(C)(C)C)Nc1ccccc1C
T/C (dose: 3.0 mg/kg/injection, vehicle: Klucel (hydroxypropylcellulose) (HPC)): 98 % of control
T/C (dose: 6.0 mg/kg/injection, vehicle: Klucel (hydroxypropylcellulose) (HPC)): 116 % of control
T/C (dose: 6.25 mg/kg/injection, vehicle: Klucel (hydroxypropylcellulose) (HPC)): 108 % of control
T/C (dose: 12.0 mg/kg/injection, vehicle: Klucel (hydroxypropylcellulose) (HPC)): 103 % of control
T/C (dose: 24.0 mg/kg/injection, vehicle: Klucel (hydroxypropylcellulose) (HPC)): 98 % of control
T/C [18]: 117 % of control
T/C (dose: 48.0 mg/kg/injection, vehicle: Klucel (hydroxypropylcellulose) (HPC)): 104 % of control
